# Patent US20130273546A1, “LOW TEMPERATURE ENZYME AND METHOD THEREOF” (UNIVERSITI PUTRA MALAYSIA, priority 2009, published 2013)
# B1: recombinant PI12 protease: cold-adapted serine protease of L. antarcticum PI12 (SEQ ID NO: 2) expressed in Pichia pastoris (protein, listed as Leucosporidium antarcticum)
# chain: MLFLPVLLLLLPGVTAFLNPVTNRATNAISSTQYLSNAYILELDLSTPGLVKRDSTPDSILEDVLTSVGRNGIKYQLRHRFISPTLFHGASITVPPGISRSQIASLRGIKRVWPVRKFSRPSAVVDADGGGSGFSGSPIKAALMGVKELGKRANAYAGDTFGPHVMTGVNETHEAGLLGAGIKIGVLDTGVDYLNPILGGCFGPGCHMSFGYDLVGDDYDGDNAPVPDVDPFASCDPHGTHVTGIIGALPNAFGFTGVAPAATLGHYRVFGCTGFVGEDIILAGLMRGVEDNCNVLTLSLGGPGGWVKGTPASILIDQIEAQGILVTVATGNSGAEGMFFSESPASTINGLSIASTDVTDLIAYNATVSGQPAIPYLSATPLNVVANSFRVHFTSTDPNNPVDACSPLPAGAPDFANYVTVVQRGTCTFVTKYQNVLNAGGKIVLLYNSEGAGNLPYLTPNGVGIDAVAGLRRSDGLKLLSYYQNANKRLTLRFPKGKIVAGLTDTITGGLISGYSTFGPTNDLYGQPTLSAPGGNILSTFPLSEGGVAVISGTSMSCPFVAGSAAVLMAARASENLTPLEIRSLLTTTAKLTPVSLLGSTPLVSVIRQGGGLVQVAKALAAKTLISPHELLLNDTANANYVQTIKIKNTNSWAMKYTFSSAVAQGLGTFDASGDILPTLDPVAVSGAQATVAFNTRILSVAPGATGSVVATITPPVLPVADAARFPIFSGWIRVNGQGARDSSRNEAYTVPYFGLAAKMIDMQVLDTTETIYGPGYAYPFVIDDAIGDIQSTTTSYSRNLGPTVFARFATGTLHYSLDLVLADIAFTPTYPNSSPATRFVKRSLTQHTSAASHLAKRRVSIATINPKATLVADRQLHSDVPIEGNIFTQPFTGRDYLVDAAPTGSTDRTVTFNGQYAENGLVRTAVTGTSYRFLLRALKISGDAMYEDQYESWLSLPFSFRA
# B2: Cold-adapted protease PI12: protease from Leucosporidium antarcticum strain PI12 (NCYC 3391), amino acid sequence SEQ ID NO: 2, GenBank CAQ76821 (protein, listed as Leucosporidium antarcticum)
# chain: B1 chain
# Legend:
# [1] = test system: Leucosporidium antarcticum strain PI12; test: Growth of the Antarctic isolate on solid media with antibiotics; type: cell-based; details: 10 days at 4° C.
# Procedure: Antarctic microorganism isolated strain was grown on different types of solid media (nutrient agar, sabouroud dextrose agar and potato dextrose agar) and several antibiotics for 10 days at 4° C. and the culture characteristics (colony colour, shape, texture) were determined. Simple staining was performed to identify the cell morphology, arrangement and size of the psychrophilic isolate PI12. Scanning electron microscopy (SEM) and transmission electron microscopy (TEM) were also conducted to study the surface features and the internal ultrastructure in thin sections of the PI12 cells. […] The growth for this microorganism was best at 4° C. and decreased through the temperature range tested (4° C.-20° C.) but no growth at over 20° C. […] The Antarctic microorganism strain PI12 was grown and screened qualitatively for the protease production on skim milk agar. The plate was incubated at 4° C. for 10 days. Protease was excreted out of the cells into the surrounding media, catalyzing the breakdown of casein and formed clearing zones around the growth area.
# azocasein = test: Protease activity assay with azocasein as substrate (modified method of Brock et al.), culture supernatants; type: biochemical; details: GpPro2 20.3 U/mL versus wild-type 1.0 U/mL
# Procedure: After 10 days of incubation, the supernatant was assayed for protease activity. Protease activity was determined by the modified method of Brock et al. (1982). Azocasein (0.5%, 1 mL) was dissolved in 0.1 M Tris-HCl-2 mM CaCl2 pH 7 was pipetted into vials and pre-incubated at 4° C. The reaction was initiated by addition of 100 μL of enzyme solution for 30 min (unless stated otherwise). An equal volume of 10% (w/v) trichloroacetic acid (TCA) was added to terminate the reaction and the mixture was allowed to stand at room temperature for 30 min before centrifugation in eppendorf microcentrifuge at 13,000×g for 10 min. The supernatant was removed and mixed with an equal volume of 1 N NaOH. The absorbance was read at 450 nm using UV/Visible spectrophotometer Ultraspec 2100 pro (Amersham Biosciences, USA). One unit of azocaseinase activity was defined as the amount of enzyme activity which produces an absorbance change of 0.001 per min at 4° C. under the standard assay condition. For control, the enzyme was added at the end of the incubation period. […]
# Assay activity of recombinant PI12 protease was determined by the modified method of Brock et a (1982) the assay activity for recombinant PI12 protease was performed at 15° C.
# [2] = Temperature profile and storage stability of the protease activity; type: biochemical
Molecule,resistance of the microorganism toward antibiotic [1],also measured
CC1(C)S[C@@H]2[C@H](NC(=O)[C@H](N)c3ccccc3)C(=O)N2[C@H]1C(=O)O [ampicillin],resistance,–
CN[C@@H]1[C@H](O[C@H]2[C@H](O[C@H]3[C@H](O)[C@@H](O)[C@H](N=C(N)N)[C@@H](O)[C@@H]3N=C(N)N)O[C@@H](C)[C@]2(O)C=O)O[C@@H](CO)[C@H](O)[C@H]1O [streptamycin],resistance,–
O=C(N[C@H](CO)[C@H](O)c1ccc([N+](=O)[O-])cc1)C(Cl)Cl [chloramphenicol],resistance,–
B1,–,recombinant protease activity relative to that produced by wild-type host (azocasein): 20.3 fold
B2,–,optimum temperature [2]: 4 [deg.] C.; enzyme activity retained ([2]; after incubating the enzyme at 4[deg.] C. for about 10 days): One hundred
